# Experimental data published in patent US20090311237A1, “Combination therapy using a soluble hyaluronidase and a bisphosphonate” (priority 2008, published 2009).
# Where two headings read alike, the source gives them in different places.
# Experiment: Pharmacokinetics of ZA in pig serum after IV or SC infusion with or without rHuPH20 (LC-MS-MS, non-compartmental analysis)
# Assay type: in vivo
# Conditions: ZA […], rHuPH20 0 U/mL
# Experimental: A pharmacokinetic study of zoledronic acid (ZA) co-administered with rHuPH20 in female Yorkshire swines was conducted. The primary objective of the study was to determine the bioavailability of zoledronic acid dosed via subcutaneous (SC) co-administration with human recombinant hyaluronidase PH20 (rHuPH20) and to compare the overall exposure to an equivalent IV dose.
# Animals in Study Group 1 were dosed with 0.15 mg/kg ZA given via a 20-minute IV infusion. Animals in Study Groups 2 and 3 were dosed subcutaneously (SC) with 0.15 mg/kg ZA without and with rHuPH20, respectively, in different SC delivery volumes.
# Following ZA dose administration, serial blood samples were collected via vascular access ports (VAPs) for serum preparation and determination of ZA concentrations. Blood collection times were at 1, 3, 5, 10, 15, 20, 30, 45, and 60 minutes, and at 1.5, 2, 3, 4, 6, 8, 10, 24, 48, and 72 hours post dose. Urine samples were also collected to compare excretion characteristics between IV and SC routes of administration. Collection times for urine were at 15 minutes before dosing (−15 min.), continuously from dose initiation to 2 hours post dose, and at 4, 6, 8, and 24 hours post dose thereafter.
# Serum concentration of ZA was determined using a qualified LC-MS-MS assay after derivatization with diazomethane (Zhu, L S et al. (2006) Rapid Commun. Mass Spectrom. 20: 3421-3426; “Qualification Data of An LC-MS/MS Method for the Determination of Zoledronate in Porcine Serum”, MDS Pharma Services Study No. AA43671-01, Report Date 14 Sep. 2007). The assay range was from 2.0 to 400 ng/mL with a lower limit of quantitation (LLOQ) at 2.0 ng/mL. Urine concentration of ZA was determined by a similar well qualified LC-MS-MS method (“Qualification Data of An LC-MS/MS Method for the Determination of Zoledronate in Porcine Urine”, MDS Pharma Services Study No. AA43671-02, Report Date 14 Sep. 2007) with an assay LLOQ at 10 ng/mL.
# Pharmacokinetic (PK) analyses of ZA serum concentration versus time data were conducted using WinNonlin v5.1 (Pharsight, Mountain View, Calif.). Non-compartmental analysis was used for derivation of primary and secondary pharmacokinetic (PK) parameters. AUC, Cmax, and Tmax were compared between dose routes, between co-administration with rHuPH20, and with dose of rHuPH20.
# [1] = female, Yorkshire, pig, serum, intravenous, […], animal ID 57, Study Group 1, IV 20 min infusion, read-out: Zoledronic Acid Serum Concentration
# [2] = female, Yorkshire, pig, serum, intravenous, […], animal ID 61, Study Group 1, IV 20 min infusion, read-out: Zoledronic Acid Serum Concentration
compound,measurement,setting,value
"O=P(O)(O)C(O)(Cn1ccnc1)P(=O)(O)O [ZA, 1-hydroxy-2-(1H-imidazol-1-yl)ethylidene-1,1-bisphosphonic acid]",Zoledronic Acid Serum Concentration,"Time 6 h, pig ID 59, Study Group 2, SC, 100 mL, 16 min",BLQ (BLQ = below assay limit of quantification (2.0 ng/mL))
same,Zoledronic Acid Serum Concentration,"Time 8 h, pig ID 59, Study Group 2, SC, 100 mL, 16 min",BLQ (BLQ = below assay limit of quantification (2.0 ng/mL))
same,Zoledronic Acid Serum Concentration,"Time 8 h, pig ID 60, Study Group 2, SC, 100 mL, 16 min",BLQ (BLQ = below assay limit of quantification (2.0 ng/mL))
same,Zoledronic Acid Serum Concentration,"Time 8 h, pig ID 62, Study Group 2, SC, 50 mL, 8 min",BLQ (BLQ = below assay limit of quantification (2.0 ng/mL))
same,Zoledronic Acid Serum Concentration,"Time 8 h, pig ID 69, Study Group 2, SC, 25 mL, 4 min",BLQ (BLQ = below assay limit of quantification (2.0 ng/mL))
same,Zoledronic Acid Serum Concentration,"Time 10 h, pig ID 59, Study Group 2, SC, 100 mL, 16 min",BLQ (BLQ = below assay limit of quantification (2.0 ng/mL))
same,Zoledronic Acid Serum Concentration,"Time 10 h, pig ID 60, Study Group 2, SC, 100 mL, 16 min",BLQ (BLQ = below assay limit of quantification (2.0 ng/mL))
same,Zoledronic Acid Serum Concentration,"Time 10 h, pig ID 62, Study Group 2, SC, 50 mL, 8 min",BLQ (BLQ = below assay limit of quantification (2.0 ng/mL))
same,Zoledronic Acid Serum Concentration,"Time 10 h, pig ID 69, Study Group 2, SC, 25 mL, 4 min",BLQ (BLQ = below assay limit of quantification (2.0 ng/mL))
same,Zoledronic Acid Serum Concentration,"Time 10 h, pig ID 70, Study Group 2, SC, 10 mL, 1.6 min",BLQ (BLQ = below assay limit of quantification (2.0 ng/mL))
same,Zoledronic Acid Serum Concentration,"Time 24 h, pig ID 59, Study Group 2, SC, 100 mL, 16 min",BLQ (BLQ = below assay limit of quantification (2.0 ng/mL))
same,Zoledronic Acid Serum Concentration,"Time 24 h, pig ID 60, Study Group 2, SC, 100 mL, 16 min",BLQ (BLQ = below assay limit of quantification (2.0 ng/mL))
same,Zoledronic Acid Serum Concentration,"Time 24 h, pig ID 62, Study Group 2, SC, 50 mL, 8 min",BLQ (BLQ = below assay limit of quantification (2.0 ng/mL))
same,Zoledronic Acid Serum Concentration,"Time 24 h, pig ID 69, Study Group 2, SC, 25 mL, 4 min",BLQ (BLQ = below assay limit of quantification (2.0 ng/mL))
same,Zoledronic Acid Serum Concentration,"Time 24 h, pig ID 70, Study Group 2, SC, 10 mL, 1.6 min",BLQ (BLQ = below assay limit of quantification (2.0 ng/mL))
same,Zoledronic Acid Serum Concentration,"Time 48 h, pig ID 59, Study Group 2, SC, 100 mL, 16 min",BLQ (BLQ = below assay limit of quantification (2.0 ng/mL))
same,Zoledronic Acid Serum Concentration,"Time 48 h, pig ID 60, Study Group 2, SC, 100 mL, 16 min",BLQ (BLQ = below assay limit of quantification (2.0 ng/mL))
same,Zoledronic Acid Serum Concentration,"Time 48 h, pig ID 62, Study Group 2, SC, 50 mL, 8 min",BLQ (BLQ = below assay limit of quantification (2.0 ng/mL))
same,Zoledronic Acid Serum Concentration,"Time 48 h, pig ID 69, Study Group 2, SC, 25 mL, 4 min",BLQ (BLQ = below assay limit of quantification (2.0 ng/mL))
same,Zoledronic Acid Serum Concentration,"Time 48 h, pig ID 70, Study Group 2, SC, 10 mL, 1.6 min",BLQ (BLQ = below assay limit of quantification (2.0 ng/mL))
same,Zoledronic Acid Serum Concentration,"Time 72 h, pig ID 59, Study Group 2, SC, 100 mL, 16 min",BLQ (BLQ = below assay limit of quantification (2.0 ng/mL))
same,Zoledronic Acid Serum Concentration,"Time 72 h, pig ID 60, Study Group 2, SC, 100 mL, 16 min",BLQ (BLQ = below assay limit of quantification (2.0 ng/mL))
same,Zoledronic Acid Serum Concentration,"Time 72 h, pig ID 62, Study Group 2, SC, 50 mL, 8 min",BLQ (BLQ = below assay limit of quantification (2.0 ng/mL))
same,Zoledronic Acid Serum Concentration,"Time 72 h, pig ID 69, Study Group 2, SC, 25 mL, 4 min",BLQ (BLQ = below assay limit of quantification (2.0 ng/mL))
same,Zoledronic Acid Serum Concentration,"Time 72 h, pig ID 70, Study Group 2, SC, 10 mL, 1.6 min",BLQ (BLQ = below assay limit of quantification (2.0 ng/mL))
same,Zoledronic Acid Serum Concentration,"Time […], pig ID 60, Study Group 2, SC, 100 mL, 16 min",BLQ (BLQ = below assay limit of quantification (2.0 ng/mL))
same,Zoledronic Acid Serum Concentration,"Time […], pig ID 62, Study Group 2, SC, 50 mL, 8 min",BLQ (BLQ = below assay limit of quantification (2.0 ng/mL))
same,Zoledronic Acid Serum Concentration,"Time […], pig ID 69, Study Group 2, SC, 25 mL, 4 min",BLQ (BLQ = below assay limit of quantification (2.0 ng/mL))
same,Zoledronic Acid Serum Concentration,"Time […], pig ID 70, Study Group 2, SC, 10 mL, 1.6 min",BLQ (BLQ = below assay limit of quantification (2.0 ng/mL))
same,Zoledronic Acid Serum Concentration,"animal ID 57, Study Group 1, IV 20 min infusion, time 6 h",BLQ^a (BLQ = below assay limit of quantification (2.0 ng/mL))
same,Zoledronic Acid Serum Concentration,"animal ID 57, Study Group 1, IV 20 min infusion, time 8 h",BLQ (BLQ = below assay limit of quantification (2.0 ng/mL))
same,Zoledronic Acid Serum Concentration,"animal ID 57, Study Group 1, IV 20 min infusion, time 10 h",BLQ (BLQ = below assay limit of quantification (2.0 ng/mL))
same,Zoledronic Acid Serum Concentration,"animal ID 57, Study Group 1, IV 20 min infusion, time 24 h",BLQ (BLQ = below assay limit of quantification (2.0 ng/mL))
same,Zoledronic Acid Serum Concentration,"animal ID 57, Study Group 1, IV 20 min infusion, time 48 h",BLQ (BLQ = below assay limit of quantification (2.0 ng/mL))
same,Zoledronic Acid Serum Concentration,"animal ID 57, Study Group 1, IV 20 min infusion, time 72 h",BLQ (BLQ = below assay limit of quantification (2.0 ng/mL))
same,Zoledronic Acid Serum Concentration,"animal ID 57, Study Group 1, IV 20 min infusion, time […]",BLQ (BLQ = below assay limit of quantification (2.0 ng/mL))
same,Zoledronic Acid Serum Concentration,"animal ID 61, Study Group 1, IV 20 min infusion, time 6 h",BLQ (BLQ = below assay limit of quantification (2.0 ng/mL))
same,Zoledronic Acid Serum Concentration,"animal ID 61, Study Group 1, IV 20 min infusion, time 8 h",BLQ (BLQ = below assay limit of quantification (2.0 ng/mL))
same,Zoledronic Acid Serum Concentration,"animal ID 61, Study Group 1, IV 20 min infusion, time 10 h",BLQ (BLQ = below assay limit of quantification (2.0 ng/mL))
same,Zoledronic Acid Serum Concentration,"animal ID 61, Study Group 1, IV 20 min infusion, time 24 h",BLQ (BLQ = below assay limit of quantification (2.0 ng/mL))
same,Zoledronic Acid Serum Concentration,"animal ID 61, Study Group 1, IV 20 min infusion, time 48 h",BLQ (BLQ = below assay limit of quantification (2.0 ng/mL))
same,Zoledronic Acid Serum Concentration,"animal ID 61, Study Group 1, IV 20 min infusion, time 72 h",BLQ (BLQ = below assay limit of quantification (2.0 ng/mL))
same,Zoledronic Acid Serum Concentration,"animal ID 61, Study Group 1, IV 20 min infusion, time […]",BLQ (BLQ = below assay limit of quantification (2.0 ng/mL))
same,Zoledronic Acid Serum Concentration,"animal ID 67, Study Group 1, IV 20 min infusion, time 6 h",BLQ (BLQ = below assay limit of quantification (2.0 ng/mL))
same,Zoledronic Acid Serum Concentration,"animal ID 67, Study Group 1, IV 20 min infusion, time 8 h",BLQ (BLQ = below assay limit of quantification (2.0 ng/mL))
same,Zoledronic Acid Serum Concentration,"animal ID 67, Study Group 1, IV 20 min infusion, time 10 h",BLQ (BLQ = below assay limit of quantification (2.0 ng/mL))
same,Zoledronic Acid Serum Concentration,"animal ID 67, Study Group 1, IV 20 min infusion, time 24 h",BLQ (BLQ = below assay limit of quantification (2.0 ng/mL))
same,Zoledronic Acid Serum Concentration,"animal ID 67, Study Group 1, IV 20 min infusion, time 48 h",BLQ (BLQ = below assay limit of quantification (2.0 ng/mL))
same,Zoledronic Acid Serum Concentration,"animal ID 67, Study Group 1, IV 20 min infusion, time 72 h",BLQ (BLQ = below assay limit of quantification (2.0 ng/mL))
same,Zoledronic Acid Serum Concentration,"animal ID 67, Study Group 1, IV 20 min infusion, time […]",BLQ (BLQ = below assay limit of quantification (2.0 ng/mL))
same,concentration at 0.016 h,[1],255 ng/mL
same,concentration at 0.05 h,[1],446 ng/mL
same,concentration at 0.333 h,[1],388 ng/mL
same,concentration at 0.5 h,"female, Yorkshire, pig, serum, intravenous, […], animal ID 57, Study Group 1, IV 20 min infusion, time 0.50 h, read-out: Zoledronic Acid Serum Concentration",244 ng/mL
same,concentration at 1 h,"female, Yorkshire, pig, serum, intravenous, […], animal ID 57, Study Group 1, IV 20 min infusion, time 1.00 h, read-out: Zoledronic Acid Serum Concentration",71.4 ng/mL
same,concentration at 2 h,"female, Yorkshire, pig, serum, intravenous, […], animal ID 57, Study Group 1, IV 20 min infusion, time 2 h, read-out: Zoledronic Acid Serum Concentration",15.4 ng/mL
same,concentration at 3 h,"female, Yorkshire, pig, serum, intravenous, […], animal ID 57, Study Group 1, IV 20 min infusion, time 3 h, read-out: Zoledronic Acid Serum Concentration",5.8 ng/mL
same,concentration at 4 h,"female, Yorkshire, pig, serum, intravenous, […], animal ID 57, Study Group 1, IV 20 min infusion, time 4 h, read-out: Zoledronic Acid Serum Concentration",2.8 ng/mL
same,concentration at 0.016 h,[2],254 ng/mL
same,concentration at 0.05 h,[2],196 ng/mL
same,concentration at 0.333 h,[2],596 ng/mL
same,concentration at 0.5 h,"female, Yorkshire, pig, serum, intravenous, […], animal ID 61, Study Group 1, IV 20 min infusion, time 0.5 h, read-out: Zoledronic Acid Serum Concentration",299 ng/mL
same,concentration at 1 h,"female, Yorkshire, pig, serum, intravenous, […], animal ID 61, Study Group 1, IV 20 min infusion, time 1 h, read-out: Zoledronic Acid Serum Concentration",85.5 ng/mL
